Results published in US11845927B2, “Bioremediation using co-metabolism substrates” (Oregon State University, priority 2018, dated 2023).
≈ marks a conversion by molar mass, not a printed value. Read-outs that look alike come from different tables or passages of the source.

Key:
[1] = tested on: short chain alkane monoxygenase (SCAM); test: Activity-based labeling (ABL) of SCAM after growth on substrates; assay type: cell-based, Rhodococcus rhodochrous 21198; settings: 21198 grown on the substrate
Excerpt: ABL testing was used to identify alcohol growth substrates that induce SCAM expression and activity and result in co-metabolic transformation of contaminants, such as 1,4-D and CAHs.

[2] = cited from earlier work; for Henry's Constant, Hcc: dimensionless
[3] = tested on: Rhodococcus rhodochrous 21198; test: Resting cell co-metabolic transformation tests with 21198; assay type: cell-based; settings: 21198 grown on isobutane, previous batch experiments
[4] = Growth substrates: final OD and % removal of cis-DCE and TCE (Table 1); assay type: cell-based; settings: culture grown on the listed substrate
[5] = cited from earlier work
[6] = tested on: Burkholderia vietnamiensis G4; test: Resting cell TCE transformation tests with G4; assay type: cell-based; settings: G4 grown on the substrate
Excerpt: This example concerns COC cometabolism by Burkholderia vietnamiensis G4 (G4).

[7] = tested on: Rhodococcus rhodochrous 21198; test: Growth cometabolism batch tests of 21198 on 2-butanol or orthosilicate SRCs; assay type: cell-based; settings: for first order rate of 1,4-D transformation / first-order rate of 1,1,1-TCA transformation: 21198 grown in the presence of the orthosilicate; for period over which cometabolic transformation of 1,1,1-TCA and 1,4-D was maintained: single addition of the SRC
Procedure: Growth on 2-butanol was tracked by the production of CO2, the increase in optical density and the consumption of 2-butanol (FIG. 11).
Three additions of 1,1,1-TCA and 1,4-D were made to the two biologically active reactors at 0, 21, and 60 days. […] A third addition of 1,1,1-TCA and 1,4-D was made to the active bottles around day 60.
The same growth cometabolism test performed with T2BOS as an SRC was performed for TBOS (FIGS. 16 and 17).
Tetraisopropoxysilane (T2POS) is a 2-propanol releasing orthosilicate, similar to TBOS and T2BOS. […] An identical test was performed to those presented for TBOS and T2BOS. The same growth indicators, CO2, O2, and 2-propanol, were tracked throughout the experiment (FIG. 18).

[8] = Abiotic hydrolysis of suspended and encapsulated TBOS and T2BOS; assay type: physicochemical; settings: for factor of decrease of hydrolysis rate in encapsulated beads compared to solution: similar masses present
Procedure: This example concerns abiotic hydrolysis experiments. Batch reactors similar to the CoC transformation reactors were used to determine the rate of hydrolysis of TBOS and T2BOS free suspended in solution and encapsulated at different mass loadings in both alginate and gellan gum. These batch kinetic tests were conducted at a constant 20° C. in 155 mL glass Wheaton bottles sealed with reusable screw on caps fitted with gray butyl rubber septa. Reactors were filled with 100 mL of pH-7 carbonate buffered MSM followed by an addition of free suspended or encapsulated SRCs. The total mass of SRC added to each reactor was dependent on various parameters but ranged from 1000-1500 mg/L. All hydrolysis rates observed here were abiotic hydrolysis rates, which was ensured by the addition of 0.2% (w/v) sodium azide as a microbial poison and typically measurements of respiration data (O2/CO2).
Reactors with TBOS and T2BOS in free suspension at concentrations that replicate encapsulated SRC reactors were created to determine the effect of encapsulation on SRC hydrolysis. Substrate production rates were used as a proxy for SRC hydrolysis, due to the simplicity of substrate analysis. Direct measurements of 1- and 2-butanol in solution were made in order to determine substrate production rates and measurements are presented on a total mass produced basis. Hydrolysis of orthosilicate compounds is acid and base catalyzed and therefore, observed hydrolysis rates are on the low end of what is possible, due to suspension in pH-7 media.
The concentrations of TBOS and T2BOS in solution effects the rate of hydrolysis, and therefore, concentrations of SRCs in abiotic reactors were created to mimic the concentration of SRCs in biotic co-encapsulated reactors, ˜1000-1500 mg/L. Biotic and abiotic reactors were created in unison and monitored alongside one another, though abiotic data have been separated and are presented below. To prevent contamination from occurring over the long duration of these experiments sodium azide, 0.2% (w/v), was added to all abiotic reactors.
Due to the ease of encapsulation of SRCs within alginate, initial abiotic hydrolysis work was conducted using alginate encapsulated TBOS. TBOS was encapsulated in abiotic alginate macro-beads at a mass loading of ˜5% and 30% (w/w). These beads were then added to triplicate reactors, such that the final TBOS concentration in pH-7 carbonate buffered media was kept constant at ˜1000 mg/L; i.e., 2 grams of 5% beads and ⅓ grams of 30% beads were added to 100 mL media solution. […] To illustrate the effect of encapsulation on the hydrolysis rate of TBOS, reactors containing similar concentrations of suspended TBOS were created and monitored alongside encapsulated TBOS reactors.
Total TBOS solution concentrations of ˜1000 mg/Land bead mass loading ˜5 and 30% (w/A). Datapoints are averages between duplicate (suspended) or triplicate (encapsulated) reactors in each treatment and errors bars are 95% confidence intervals. Suspended TBOS reactors were created after encapsulated reactors and therefore, have a shorter total duration of measurements.
The abiotic hydrolysis rate of both TBOS and T2BOS encapsulated in gellan gum was also investigated. Both SRCs were encapsulated in cylindrical gellan macro-beads at mass loadings of ˜8% (w/w). For this work ATCC 21198 was also co-encapsulated within the gellan gum matrix at initial concentrations of ˜0.5 mgTss/g, and an addition of 0.2% (w/v) sodium azide was added as a cellular poison to ensure cells were not alive within the matrix. Biomass was encapsulated because it had been determined that encapsulated SRCs may hydrolyze more quickly with cells present within the encapsulation matrix. Although, the increase in hydrolysis rate was not proven to be from biotic hydrolysis of SRCs and may have been due to the presence of biomass within the matrix allowing more diffusion of water into and butanol out of beads. […]

[9] = Alcohol release from orthosilicates in poisoned control batch reactors; assay type: physicochemical
Excerpt: A slow but gradual rate of O2 consumption was observed, when headspace O2 concentrations are compared to the poisoned controls (FIG. 13). […] T2BOS is not rapidly utilized by 21198 like observed with sBA (FIG. 15), and 2-butanol is released by abiotic hydrolysis. The slow rate of hydrolysis is indicated by the measured 2-butanol concentrations in the poisoned reactor. Over the period of 60 to 125 days approximately 50 μmol of 2-butanol was formed.
Tetraisopropoxysilane (T2POS) is a 2-propanol releasing orthosilicate, similar to TBOS and T2BOS. […] The smaller 2-propanol therefore would be released from T2POS more rapidly than 2-butanol from T2BOS [6], but slower than TBOS. An identical test was performed to those presented for TBOS and T2BOS. The same growth indicators, CO2, O2, and 2-propanol, were tracked throughout the experiment (FIG. 18).

[10] = Table 15, summary of abiotic hydrolysis rates
[11] = abiotic hydrolysis, aqueous alcohol

CC(C)C [Isobutane]
SCAM activity / protein banding pattern [1]: strongest banding pattern
Solubility, Sw [2]: 48.9 mg/L (≈ 841 µM)
Henry's Constant, Hcc [2]: 49.2
VC transformation rate [3]: about 14 μmol/mg TSS/day

1-Propanol
SCAM activity / protein banding pattern [1]: not induced
% REMOVAL Cis-DCE [4]: 44%
FINAL OD(550) [4]: 0.24

CCC(C)OC(C)=O (centres unmarked) [sec-butyl acetate]
estimated solubility [5]: 3520 µg/mL

C=CC(C)O (centres unmarked) [3-buten-2-ol]
FINAL OD(550) [4]: 0.03

C1COCCO1 [1,4-Dioxane]
Henry's Constant, Hcc [2]: 0.000198

Oc1ccccc1 [Phenol]
% REMOVAL TCE [4]: 100%
TCE transformation by resting cells [6]: slower transformation rates

C#C [acetylene, reference compound]
effect on transformation of 1,1,1-TCA and 1,4-D ([7]; acetylene present during growth of 21198 on 2-butanol): blocked

CC(C)O [2-propanol]
SCAM activity / protein banding pattern [1]: faint banding pattern

CC(Cl)(Cl)Cl [1,1,1-Trichloroethane]
Solubility, Sw [2]: 1,290 mg/L
Henry's Constant, Hcc [2]: 0.548

CCCC(=O)O [Butyrate]
% REMOVAL TCE [4]: 9%

CC(=O)OCc1ccccc1 [benzyl acetate]
TCE transformation by resting cells [6]: slower transformation rates

CCC(C)O[Si](OC(C)CC)(OC(C)CC)OC(C)CC (centres unmarked) [T2BOS, tetra-sec-butyl orthosilicate]
estimated solubility [5]: 6.8 µg/mL
estimated solubility ([5]; listed as tetra-sec-butyl orthosilicate): 3.8 µg/mL
Estimated Exhaustion of T2BOS ([8]; Table 13): 12.9 years
Butanol Production Rate ([8]; Table 13, SRC ~1500 mg/L, pH-7): 0.40 µmol/day
Estimated Exhaustion of TBOS ([8]; Table 14): 12.9 years
Butanol Production Rate ([8]; Table 14, SRC 1500 mg/l): 0.40 µmol/day
Estimated Exhaustion of SRS ([8]; Table 15): 12.9 years
Butanol Production Rate [8, 10]: 0.40 µmol/day
factor of decrease of hydrolysis rate in encapsulated beads compared to solution [8]: 10
first order rate of 1,4-D transformation [7]: 0.04 day⁻¹
first-order rate of 1,1,1-TCA transformation [7]: 0.037 day⁻¹
period over which cometabolic transformation of 1,1,1-TCA and 1,4-D was maintained [7]: 125 days
2-butanol production rate in poisoned control [9, 11]: 0.76 µmol/day
2-butanol formed in poisoned reactor ([9]; over the period of 60 to 125 days, T2BOS 1500 mg/L): approximately 50 μmol

OCc1ccccc1 [Benzyl alcohol]
% REMOVAL TCE [4]: 100%
TCE transformation by resting cells [6]: rapidly cometabolized

O=C(O)c1ccccc1 [Benzoate]
% REMOVAL Cis-DCE [4]: 84%
% REMOVAL TCE [4]: 6%
FINAL OD(550) [4]: 0.24

2-butanol
SCAM activity / protein banding pattern [1]: observed

CCCC(=O)OCc1ccccc1 [benzyl butyrate]
TCE transformation by resting cells [6]: rapidly cometabolized

CCCCO[Si](OCCCC)(OCCCC)OCCCC [TBOS, tetrabutyl orthosilicate]
Estimated Exhaustion of TBOS ([8]; Table 12): 0.6 years
Butanol Production Rate ([8]; Table 12, 1-butanol, TBOS ~1000 mg/L, pH-7, 20° C.): 5.9 µmol/day
Estimated Exhaustion of SRS ([8]; Table 15): 0.58 years
Butanol Production Rate [8, 10]: 5.91 µmol/day
factor of decrease of hydrolysis rate in encapsulated beads compared to solution [8]: 10
first order rate of 1,4-D transformation [7]: 0.76 day⁻¹
first-order rate of 1,1,1-TCA transformation [7]: 0.47 day⁻¹
period over which cometabolic transformation of 1,1,1-TCA and 1,4-D was maintained [7]: 45 days
alcohol production rate in poisoned control [9, 11]: 11 µmol/day

C=CCCO [3-buten-1-ol]
% REMOVAL Cis-DCE [4]: 89%
% REMOVAL TCE [4]: 21%
FINAL OD(550) [4]: .022

CC(=O)O [Acetate]
% REMOVAL Cis-DCE [4]: 73%
FINAL OD(550) [4]: 0.33
TCE transformation by resting cells [6]: Slow rates

CCO [Ethanol]
SCAM activity / protein banding pattern [1]: not induced

CC(C)O[Si](OC(C)C)(OC(C)C)OC(C)C [T2POS, tetraisopropoxysilane]
first order rate of 1,4-D transformation [7]: 0.24 day⁻¹
first-order rate of 1,1,1-TCA transformation [7]: 0.14 day⁻¹
alcohol production rate in poisoned control [9, 11]: 5.1 µmol/day

CC=CCO [2-buten-1-ol]
% REMOVAL Cis-DCE [4]: 67%
% REMOVAL TCE [4]: 20%
FINAL OD(550) [4]: .023

1-butanol
SCAM activity / protein banding pattern [1]: not induced
% REMOVAL Cis-DCE [4]: 98%
% REMOVAL TCE [4]: 16%
FINAL OD(550) [4]: 0.24
